Data reported in patent publication US20130072430A1, “METHODS FOR TREATMENT OR PROPHYLAXIS OF KIDNEY OR LIVER DYSFUNCTION” (NPS PHARMACEUTICALS, INC., priority 2010, published 2013).

Test system: Human patients with short bowel syndrome
Test: Example 1: liver diagnostic biomarkers (total bilirubin, ALT, AST, ALP) in short bowel syndrome patients, every four weeks for 24 weeks
Format: in vivo
Method: Human patients with short bowel syndrome were divided into three groups: a control group (16 total individuals) to receive placebo, an experimental group (35 total individuals) to receive teduglutide at 0.05 mg/kg/day throughout the study, and an experimental group (32 total individuals) to receive teduglutide at 0.1 mg/kg/day throughout the study. Patients were treated by subcutaneous injection of placebo or the appropriate dose of teduglutide. As individuals with short bowel syndrome are likely to experience associated liver and kidney disease, known biomarkers of liver and kidney function were monitored every four weeks, for 24 weeks. The liver biomarkers tested included total bilirubin, ALT and AST and ALP. The kidney biomarkers tested included urea nitrogen, creatinine and GFR. Before administration of placebo or teduglutide, diagnostic biomarker levels were tested to establish a baseline for each individual.
To visualize the effect of GLP-2 on the levels of the diagnostic biomarkers, the average change from baseline was calculated for the placebo and teduglutide treated groups for each visit after a baseline was established. The average change from baseline of each group is depicted in FIGS. […]. The numerical figures for each diaanostic biomarker at each time point are depicted in Table 1.
The efficacy of teduglutide in treating liver dysfunction was further tested by sorting the data into two groups: individuals with abnormal baseline values of liver diagnostic biomarkers; and individuals with normal baseline values of liver diagnostic biomarkers. The mean diagnostic biomarker change from baseline for these two groups is shown for ALT (FIGS. 5 and 6) and AST (FIGS. 7 and 8). […] These changes were significant when compared to baseline levels for the group, and when compared to placebo (see FIGS. 5 and 7).
The raw data for this sorting is reproduced in Table 2 below.

[1] = Week 12, range −5%<= and <=5%, teduglutide 0.05 mg/kg/day
[2] = Week 12, range −5%<= and <=5%, teduglutide 0.1 mg/kg/day
[3] = Week 16, range <−5%, teduglutide 0.05 mg/kg/day
[4] = Week 16, range <−5%, teduglutide 0.1 mg/kg/day
[5] = Week 16, range >5%, teduglutide 0.05 mg/kg/day
[6] = Week 16, range >5%, teduglutide 0.1 mg/kg/day
[7] = Week 16, range −5%<= and <=5%, teduglutide 0.05 mg/kg/day
[8] = Week 16, range −5%<= and <=5%, teduglutide 0.1 mg/kg/day
[9] = Week 20, range <−5%, teduglutide 0.05 mg/kg/day
[10] = Week 20, range <−5%, teduglutide 0.1 mg/kg/day
[11] = Week 20, range >5%, teduglutide 0.05 mg/kg/day
[12] = Week 20, range >5%, teduglutide 0.1 mg/kg/day
[13] = Week 20, range −5%<= and <=5%, teduglutide 0.05 mg/kg/day
[14] = Week 20, range −5%<= and <=5%, teduglutide 0.1 mg/kg/day
[15] = Week 24, range <−5%, teduglutide 0.05 mg/kg/day
[16] = Week 24, range <−5%, teduglutide 0.1 mg/kg/day
[17] = Week 24, range >5%, teduglutide 0.05 mg/kg/day
[18] = Week 24, range >5%, teduglutide 0.1 mg/kg/day
[19] = Week 24, range −5%<= and <=5%, teduglutide 0.05 mg/kg/day
[20] = Week 24, range −5%<= and <=5%, teduglutide 0.1 mg/kg/day
[21] = compared to baseline and to placebo

CC[C@H](C)[C@H](NC(=O)[C@H](Cc1ccccc1)NC(=O)[C@H](CC(=O)O)NC(=O)[C@H](CCCNC(=N)N)NC(=O)[C@H](C)NC(=O)[C@H](C)NC(=O)[C@H](CC(C)C)NC(=O)[C@H](CC(N)=O)NC(=O)[C@H](CC(=O)O)NC(=O)[C@H](CC(C)C)NC(=O)[C@@H](NC(=O)[C@@H](NC(=O)[C@H](CC(N)=O)NC(=O)[C@H](CCSC)NC(=O)[C@H](CCC(=O)O)NC(=O)[C@H](CC(=O)O)NC(=O)[C@H](CO)NC(=O)[C@H](Cc1ccccc1)NC(=O)[C@H](CO)NC(=O)CNC(=O)[C@H](CC(=O)O)NC(=O)CNC(=O)[C@@H](N)Cc1c[nH]cn1)[C@@H](C)O)[C@@H](C)CC)C(=O)N[C@@H](CC(N)=O)C(=O)N[C@@H](Cc1c[nH]c2ccccc12)C(=O)N[C@@H](CC(C)C)C(=O)N[C@H](C(=O)N[C@@H](CCC(N)=O)C(=O)N[C@H](C(=O)N[C@@H](CCCCN)C(=O)N[C@H](C(=O)N[C@H](C(=O)N[C@@H](CC(=O)O)C(=O)O)[C@@H](C)O)[C@@H](C)CC)[C@@H](C)O)[C@@H](C)CC [teduglutide]
ALT (SGPT) change from baseline: patients in range, n(%) [1]: 4(11.4%)
AST (SGOT) change from baseline: patients in range, n(%) [1]: 3(8.6%)
TOTAL BILIRUBIN change from baseline: patients in range, n(%) [1]: 4(11.4%)
ALKALINE PHOSPHATASE change from baseline: patients in range, n(%) [2]: 1(3.1%)
ALT (SGPT) change from baseline: patients in range, n(%) [2]: 2(6.3%)
AST (SGOT) change from baseline: patients in range, n(%) [2]: 3(9.4%)
TOTAL BILIRUBIN change from baseline: patients in range, n(%) [2]: 6(18.8%)
ALKALINE PHOSPHATASE change from baseline: patients in range, n(%) [3]: 20(57.1%)
AST (SGOT) change from baseline: patients in range, n(%) [3]: 14(40.0%)
TOTAL BILIRUBIN change from baseline: patients in range, n(%) [3]: 14(40.0%)
ALKALINE PHOSPHATASE change from baseline: patients in range, n(%) [4]: 21(65.6%)
AST (SGOT) change from baseline: patients in range, n(%) [4]: 18(56.3%)
TOTAL BILIRUBIN change from baseline: patients in range, n(%) [4]: 14(43.8%)
ALKALINE PHOSPHATASE change from baseline: patients in range, n(%) [5]: 6(17.1%)
ALT (SGPT) change from baseline: patients in range, n(%) [5]: 12(34.3%)
AST (SGOT) change from baseline: patients in range, n(%) [5]: 8(22.9%)
TOTAL BILIRUBIN change from baseline: patients in range, n(%) [5]: 9(25.7%)
ALKALINE PHOSPHATASE change from baseline: patients in range, n(%) [6]: 7(21.9%)
ALT (SGPT) change from baseline: patients in range, n(%) [6]: 9(28.1%)
AST (SGOT) change from baseline: patients in range, n(%) [6]: 8(25.0%)
TOTAL BILIRUBIN change from baseline: patients in range, n(%) [6]: 6(18.8%)
ALT (SGPT) change from baseline: patients in range, n(%) (Week 16, range >−5%, teduglutide 0.05 mg/kg/day): 16(45.7%)
ALT (SGPT) change from baseline: patients in range, n(%) (Week 16, range >−5%, teduglutide 0.1 mg/kg/day): 19(59.4%)
ALKALINE PHOSPHATASE change from baseline: patients in range, n(%) [7]: 2(5.7%)
ALT (SGPT) change from baseline: patients in range, n(%) [7]: 0(0.0%)
AST (SGOT) change from baseline: patients in range, n(%) [7]: 6(17.1%)
TOTAL BILIRUBIN change from baseline: patients in range, n(%) [7]: 3(8.6%)
ALKALINE PHOSPHATASE change from baseline: patients in range, n(%) [8]: 2(6.3%)
ALT (SGPT) change from baseline: patients in range, n(%) [8]: 2(6.3%)
AST (SGOT) change from baseline: patients in range, n(%) [8]: 3(9.4%)
TOTAL BILIRUBIN change from baseline: patients in range, n(%) [8]: 8(25.0%)
ALKALINE PHOSPHATASE change from baseline: patients in range, n(%) [9]: 22(62.9%)
ALT (SGPT) change from baseline: patients in range, n(%) [9]: 17(48.6%)
AST (SGOT) change from baseline: patients in range, n(%) [9]: 17(48.6%)
TOTAL BILIRUBIN change from baseline: patients in range, n(%) [9]: 12(34.3%)
ALKALINE PHOSPHATASE change from baseline: patients in range, n(%) [10]: 19(59.4%)
ALT (SGPT) change from baseline: patients in range, n(%) [10]: 19(59.4%)
AST (SGOT) change from baseline: patients in range, n(%) [10]: 16(50.0%)
TOTAL BILIRUBIN change from baseline: patients in range, n(%) [10]: 14(43.8%)
ALKALINE PHOSPHATASE change from baseline: patients in range, n(%) [11]: 4(11.4%)
ALT (SGPT) change from baseline: patients in range, n(%) [11]: 9(25.7%)
AST (SGOT) change from baseline: patients in range, n(%) [11]: 6(17.1%)
TOTAL BILIRUBIN change from baseline: patients in range, n(%) [11]: 7(20.0%)
ALKALINE PHOSPHATASE change from baseline: patients in range, n(%) [12]: 9(28.1%)
ALT (SGPT) change from baseline: patients in range, n(%) [12]: 8(25.0%)
AST (SGOT) change from baseline: patients in range, n(%) [12]: 9(28.1%)
TOTAL BILIRUBIN change from baseline: patients in range, n(%) [12]: 9(28.1%)
ALKALINE PHOSPHATASE change from baseline: patients in range, n(%) [13]: 1(2.9%)
ALT (SGPT) change from baseline: patients in range, n(%) [13]: 1(2.9%)
AST (SGOT) change from baseline: patients in range, n(%) [13]: 4(11.4%)
TOTAL BILIRUBIN change from baseline: patients in range, n(%) [13]: 6(17.1%)
ALKALINE PHOSPHATASE change from baseline: patients in range, n(%) [14]: 1(3.1%)
ALT (SGPT) change from baseline: patients in range, n(%) [14]: 2(6.3%)
AST (SGOT) change from baseline: patients in range, n(%) [14]: 3(9.4%)
TOTAL BILIRUBIN change from baseline: patients in range, n(%) [14]: 6(18.8%)
ALKALINE PHOSPHATASE change from baseline: patients in range, n(%) [15]: 21(60.0%)
ALT (SGPT) change from baseline: patients in range, n(%) [15]: 18(51.4%)
AST (SGOT) change from baseline: patients in range, n(%) [15]: 17(48.6%)
TOTAL BILIRUBIN change from baseline: patients in range, n(%) [15]: 8(22.9%)
ALKALINE PHOSPHATASE change from baseline: patients in range, n(%) [16]: 20(62.5%)
ALT (SGPT) change from baseline: patients in range, n(%) [16]: 18(56.3%)
AST (SGOT) change from baseline: patients in range, n(%) [16]: 15(46.9%)
TOTAL BILIRUBIN change from baseline: patients in range, n(%) [16]: 11(34.4%)
ALKALINE PHOSPHATASE change from baseline: patients in range, n(%) [17]: 4(11.4%)
ALT (SGPT) change from baseline: patients in range, n(%) [17]: 4(11.4%)
AST (SGOT) change from baseline: patients in range, n(%) [17]: 6(17.1%)
TOTAL BILIRUBIN change from baseline: patients in range, n(%) [17]: 10(28.6%)
ALKALINE PHOSPHATASE change from baseline: patients in range, n(%) [18]: 5(15.6%)
ALT (SGPT) change from baseline: patients in range, n(%) [18]: 11(34.4%)
AST (SGOT) change from baseline: patients in range, n(%) [18]: 11(34.4%)
TOTAL BILIRUBIN change from baseline: patients in range, n(%) [18]: 10(31.3%)
ALKALINE PHOSPHATASE change from baseline: patients in range, n(%) [19]: 0(0.0%)
ALT (SGPT) change from baseline: patients in range, n(%) [19]: 4(11.4%)
AST (SGOT) change from baseline: patients in range, n(%) [19]: 3(8.6%)
TOTAL BILIRUBIN change from baseline: patients in range, n(%) [19]: 4(11.4%)
ALKALINE PHOSPHATASE change from baseline: patients in range, n(%) [20]: 4(12.5%)
ALT (SGPT) change from baseline: patients in range, n(%) [20]: 0(0.0%)
AST (SGOT) change from baseline: patients in range, n(%) [20]: 3(9.4%)
TOTAL BILIRUBIN change from baseline: patients in range, n(%) [20]: 6(18.8%)
fraction of individuals experiencing a decrease of more than 5% in ALT versus placebo (beginning at 4 weeks after commencement of treatment): greater fraction of individuals experiencing a decrease of more than 5%
ALT change from baseline in patients with abnormal baseline values (FIG. 5) [21]: statistically significant improvements
AST change from baseline in patients with abnormal baseline values (FIG. 7) [21]: statistically significant improvements
average level of ALP relative to baseline (FIG. 4) (groups receiving teduglutide): decreased relative to baseline for the entire period of the study
percent of individuals experiencing an increase of greater than 5% in ALP or ALT versus placebo (groups receiving teduglutide): effective prophylactic against increases in biomarkers associated with liver dysfunction
average decrease of the level of ALT from baseline (FIG. 1) (groups receiving teduglutide, maintained for the entire duration of the study): about 10 U/L
individuals experiencing a decrease in ALP greater than 5% from baseline (within 4 weeks of the beginning of treatment, groups receiving teduglutide): roughly 60%
